{
  "source": "patent US12281114B2",
  "about": "“NK3 modulators and uses thereof” (Kallyope, Inc., priority 2023, dated 2025)",
  "data": [
    {"biological_target": "T1, human NK3 (Homo sapiens, UniProt P29371)", "T1 sequence (P29371 1-465)": "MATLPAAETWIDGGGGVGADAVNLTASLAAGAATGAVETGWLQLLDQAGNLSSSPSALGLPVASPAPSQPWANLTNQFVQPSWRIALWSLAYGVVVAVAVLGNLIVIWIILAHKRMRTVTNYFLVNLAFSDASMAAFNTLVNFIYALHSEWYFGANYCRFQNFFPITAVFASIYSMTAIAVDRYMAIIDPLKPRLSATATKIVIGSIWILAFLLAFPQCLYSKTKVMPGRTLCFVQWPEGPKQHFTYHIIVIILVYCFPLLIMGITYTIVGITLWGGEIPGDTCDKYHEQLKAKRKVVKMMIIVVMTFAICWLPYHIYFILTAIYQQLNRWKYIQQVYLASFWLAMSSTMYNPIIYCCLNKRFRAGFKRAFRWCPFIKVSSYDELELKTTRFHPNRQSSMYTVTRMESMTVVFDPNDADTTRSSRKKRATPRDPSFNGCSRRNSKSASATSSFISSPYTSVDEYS", "test": "FLIPR calcium assay in antagonist mode (NKB EC70 challenge)", "type": "cell-based", "settings": "stable cell line expressing human recombinant NK3; antagonist mode vs EC70 of NKB agonist", "protocol": "Stable Cell Lines: A human recombinant NK3 Tachykinin Receptor stable cell line was purchased from GenScript (Genscript, Cat. #M00201; GenBank Accession Number NM 001059). The cell line was cultured according to manufacturer instructions, using 100 μg/mL Hygromycin B (Invitrogen, Cat. #D2650) for selective pressure. Cells were then collected using 0.05% Trypsin-EDTA (GIBCO, Cat. #25300) and frozen in a freezing media containing 90% FBS (Gibco, Cat. #10099-141) and 10% DMSO (Sigma, Cat. #D2650) at a density of 30×10^6 cells/mL. This bank of assay-ready frozen cells was later used in FLIPR assays to evaluate the potency and efficacy of NK3 antagonist test compounds.\nFLIPR Calcium Assay: The FLIPR assay, used to measure changes in intracellular calcium levels, was performed in a 384-well plate format using the FLIPR Calcium 6 assay kit (Molecular Devices, Cat. #R8190). Assay-ready frozen cells expressing human NK3 (Genscript, Cat. #M00201) were thawed, washed, trypsinized, counted using a ViCell, and plated in cell growth media without Hygromycin at a density of […] (40 μL/well).\nCalculation of NKB EC70: An EC70 concentration of NKB needed to be determined for competition against test antagonists prior to the compound screen. NKB agonist (Phoenix Pharmaceuticals, Cat. #046-26) was diluted in DMSO at 1800 nM (6-fold the final concentration) and serially diluted to generate a 13-point dose response curve (3-fold serial dilution) using an ECHO. 20 μL of 1× stimulation buffer was added using the BRAVO. 10 μL of DMSO was added while on the FLIPR (described as the first addition), then the RFU signal was measured for 10 minutes. The NKB titration was added to the plate, then the RFU signal was measured for 10 minutes (described as the second addition) on the FLIPR. The EC70 concentration was determined by using a four-parameter fit on GraphPad Prism prior to performing the compound screen.\nFLIPR Screen in Antagonist Mode: Test compounds were prepared at 60 μM (6-fold the final concentration) and spotted in 370 nL using the Janus and ECHO. 20 μL of assay buffer was added using the BRAVO. Calcium-sensitive dye was reconstituted in loading buffer (Molecular Devices, Cat. #R8190). Media was removed from the cell plate using a Bluecat Cell Washer, and 40 μL of dye was added to the cell plate using the Apricot. The plate was incubated for 2 hours at 37° C., 5% CO2, then transferred to the FLIPR instrument. 10 μL of compound was added on the FLIPR (described as the first addition), then the RFU signal was measured for 10 minutes. EC70 of NKB agonist was added to the entire plate (described as the second addition), and the RFU signal was measured for 10 minutes on the FLIPR. RFU (relative fluorescence units) signals for first baseline, first peak, second baseline, and second peak were measured using the FLIPR. RFU signal (second peak minus second baseline) for positive (Max, at 10 μM antagonist) and negative (Min, at 0 μM antagonist) controls were used to normalize data and generate values for % Activity. IC50 and efficacy values were determined using a standard curve fitting equation on Dotmatics.", "units": {"IC50": "nM"}, "values": [
      {"molecule": "Cc1nn(C)cc1-c1ccncc1-c1nc2cc(C(=O)N[C@H]3C[C@](C)(O)C3)ccn2c1Cl", "note": "[Compound 825]", "IC50": 7.72},
      {"molecule": "C[C@]1(O)C[C@H](NC(=O)c2ccn3c(Cl)c(-c4ccccc4-c4cn(C5CC5)nc4Cl)nc3c2)C1", "note": "[Compound 826]", "IC50": 1.4},
      {"molecule": "Cn1cc(-c2cccc(F)c2-c2nc3cc(C(=O)N[C@H]4C[C@](C)(O)C4)ccn3c2Cl)c(F)n1", "note": "[Compound 828]", "IC50": 0.3},
      {"molecule": "CC1(O)CCN(C(=O)c2ccn3c(Cl)c(-c4c(F)cc(F)cc4-c4c[nH]nc4F)nc3c2)CC1", "note": "[Compound 829]", "IC50": 8.27},
      {"molecule": "O=C(NC1CS(=O)(=O)C1)c1ccn2c(Cl)c(-c3c(F)cc(F)cc3-c3c[nH]nc3F)nc2c1", "note": "[Compound 830]", "IC50": 6.63},
      {"molecule": "Cc1c(-c2c(F)cc(F)cc2-c2cn(C)nc2F)nc2cc(C(=O)N[C@H]3C[C@@](C)(O)C3)ccn12", "note": "[Compound 831]", "IC50": 3.66},
      {"molecule": "Cn1ncc(-c2cc(F)cc(F)c2-c2nc3cc(C(=O)N[C@H]4C[C@@](C)(O)C4)ccn3c2Cl)c1F", "note": "[Compound 832]", "IC50": 6.91},
      {"molecule": "CO[C@H]1C[C@@H](NC(=O)c2ccn3c(F)c(-c4c(F)cc(F)cc4-c4c[nH]nc4Cl)nc3c2)C1", "note": "[Compound 833]", "IC50": 2.68},
      {"molecule": "O=C(NCC1(O)COC1)c1ccn2c(F)c(-c3c(F)cc(F)cc3-c3c[nH]nc3Cl)nc2c1", "note": "[Compound 834]", "IC50": 6.01},
      {"molecule": "Cn1cc(-c2cccc(F)c2-c2nc3cc(C(=O)N[C@H]4C[C@@](C)(O)C4)ccn3c2Cl)cn1", "note": "[Compound 835]", "IC50": 6.24},
      {"molecule": "CC(C)(O)C12CC(NC(=O)c3ccn4c(F)c(-c5c(F)cccc5-c5c[nH]nc5F)nc4c3)(C1)C2", "note": "[Compound 836]", "IC50": 1.1},
      {"molecule": "Cn1cc(-c2cccc(F)c2-c2nc3cc(C(=O)N[C@@H]4CC[C@@H](CO)OC4)ccn3c2Cl)c(F)n1", "note": "[Compound 837]", "IC50": 1.01},
      {"molecule": "Cn1cc(-c2cccc(F)c2-c2nc3cc(C(=O)NC45COC(CO)(C4)C5)ccn3c2Cl)c(F)n1", "note": "[Compound 838]", "IC50": 5.17},
      {"molecule": "Cn1cc(-c2cccc(F)c2-c2nc3cc(C(=O)NCC45CC(CO)(CO4)C5)ccn3c2Cl)c(F)n1", "note": "[Compound 839]", "IC50": 0.46},
      {"molecule": "Cn1cc(-c2cccc(F)c2-c2nc3cc(C(=O)NC4CC5(COC5)C4)ccn3c2Cl)c(F)n1", "note": "[Compound 840]", "IC50": 0.58},
      {"molecule": "Cn1cc(-c2cccc(F)c2-c2nc3cc(C(=O)N[C@H]4C[C@@](O)(CO)C4)ccn3c2Cl)c(F)n1", "note": "[Compound 841]", "IC50": 1.25},
      {"molecule": "Cn1cc(-c2cccc(F)c2-c2nc3cc(C(=O)N4CC5(C4)CC(C)(O)C5)ccn3c2Cl)c(F)n1", "note": "[Compound 842]", "IC50": 1.38},
      {"molecule": "Cn1cc(-c2cccc(F)c2-c2nc3cc(C(=O)N[C@H]4C[C@](O)(CO)C4)ccn3c2Cl)c(F)n1", "note": "[Compound 843]", "IC50": 1.08},
      {"molecule": "Cn1cc(-c2cccc(F)c2-c2nc3cc(C(=O)NC[C@H]4C[C@@](C)(O)C4)ccn3c2Cl)c(F)n1", "note": "[Compound 844]", "IC50": 0.42},
      {"molecule": "C[C@H]1C[C@H](NC(=O)c2ccn3c(Cl)c(-c4c(F)cc(F)cc4-c4c[nH]nc4F)nc3c2)C1", "note": "[Compound 847]", "IC50": 3.57},
      {"molecule": "COC12CC(NC(=O)c3ccn4c(Cl)c(-c5c(F)cc(F)cc5-c5c[nH]nc5F)nc4c3)(C1)C2", "note": "[Compound 848]", "IC50": 2},
      {"molecule": "Cn1cc(-c2ccccc2-c2nc3cc(C(=O)NC4CC5(C4)CS(=O)(=O)C5)ccn3c2Cl)c(F)n1", "note": "[Compound 849]", "IC50": 0.94},
      {"molecule": "Cn1cc(-c2cccc(F)c2-c2nc3cc(C(=O)NCC45CC(CO)(CCO4)C5)ccn3c2Cl)c(F)n1", "note": "[Compound 850]", "IC50": 0.31},
      {"molecule": "O=C(NC1CC(CO)(CO)C1)c1ccn2c(Cl)c(-c3c(F)cc(F)cc3-c3cnn(C4CC4)c3F)nc2c1", "note": "[Compound 851]", "IC50": 1.93},
      {"molecule": "O=C(N[C@@H]1C[C@@H](O)[C@@H](O)C1)c1ccn2c(Cl)c(-c3c(F)cccc3-c3cn(C4CC4)nc3F)nc2c1", "note": "[Compound 852]", "IC50": 0.97},
      {"molecule": "Cn1cc(-c2cccc(F)c2-c2nc3cc(C(=O)NC4CC5(CC(O)C5)C4)ccn3c2Cl)c(F)n1", "note": "(stereo not shown) [Compound 853]", "IC50": 0.97},
      {"molecule": "Cn1cc(-c2cccc(F)c2-c2nc3cc(C(=O)NC45CCC(CO)(C4)OC5)ccn3c2Cl)c(F)n1", "note": "(stereo not shown) [Compound 854]", "IC50": 1.42},
      {"molecule": "Cn1cc(-c2ccccc2-c2nc3cc(C(=O)NC45CCC(O)(CC4)C5)ccn3c2Cl)c(F)n1", "note": "[Compound 855]", "IC50": 1.71},
      {"molecule": "CC12CC(NC(=O)c3ccn4c(Cl)c(-c5c(F)cccc5-c5cn[nH]c5)nc4c3)(C1)C2", "note": "[Compound 856]", "IC50": 11.8},
      {"molecule": "Cn1cc(-c2ccc(F)c(F)c2-c2nc3cc(C(=O)N[C@H]4C[C@@](C)(O)C4)ccn3c2Cl)c(F)n1", "note": "[Compound 916]", "IC50": 0.84},
      {"molecule": "Cn1cc(-c2cccc(F)c2-c2nc3cc(C(=O)N[C@H]4CC[C@](C)(O)CC4)ccn3c2Cl)c(F)n1", "note": "[Compound 917]", "IC50": 0.67},
      {"molecule": "Cn1cc(-c2cccc(F)c2-c2nc3cc(C(=O)N[C@H]4CC[C@](C)(O)CC4)ccn3c2Cl)cn1", "note": "[Compound 918, 3-chloro-2-(2-fluoro-6-(1-methyl-1H-pyrazol-4-yl)phenyl)-N-((1r,4r)-4-hydroxy-4-methylcyclohexyl)imidazo[1,2-a]pyridine-7-carboxamide]", "IC50": 3.48},
      {"molecule": "Cn1cc(-c2cccc(F)c2-c2nc3cc(C(=O)N[C@H]4CC[C@@](C)(O)CC4)ccn3c2Cl)c(F)n1", "note": "[Compound 919]", "IC50": 1.27},
      {"molecule": "Cn1cc(-c2cccc(F)c2-c2nc3cc(C(=O)N[C@H]4CC5(C[C@@H](O)C5)C4)ccn3c2Cl)c(F)n1", "note": "(stereo partly drawn) [Compound 921, trans 3-chloro-2-(2-fluoro-6-(3-fluoro-1-methyl-1H-pyrazol-4-yl)phenyl)-N-(6-hydroxyspiro[3.3]heptan-2-yl)imidazo[1,2-a]pyridine-7-carboxamide]", "IC50": 0.71},
      {"molecule": "Cn1cc(-c2cc(F)cc(F)c2-c2nc3cc(C(=O)N[C@H]4C[C@](O)(CO)C4)ccn3c2Cl)c(F)n1", "note": "[Compound 922, 3-chloro-2-(2,4-difluoro-6-(3-fluoro-1-methyl-1H-pyrazol-4-yl)phenyl)-N-((1s,3s)-3-hydroxy-3-(hydroxymethyl)cyclobutyl)imidazo[1,2-a]pyridine-7-carboxamide]", "IC50": 2.83},
      {"molecule": "Cn1cc(-c2cc(F)cc(F)c2-c2nc3cc(C(=O)N[C@H]4C[C@@](O)(CO)C4)ccn3c2Cl)c(F)n1", "note": "[Compound 923, 3-chloro-2-(2,4-difluoro-6-(3-fluoro-1-methyl-1H-pyrazol-4-yl)phenyl)-N-((1r,3r)-3-hydroxy-3-(hydroxymethyl)cyclobutyl)imidazo[1,2-a]pyridine-7-carboxamide]", "IC50": 2.36},
      {"molecule": "Cn1cc(-c2cccc(F)c2-c2nc3cc(C(=O)N[C@H]4CC[C@H](CO)OC4)ccn3c2Cl)c(F)n1", "note": "[Compound 924, 3-chloro-2-(2-fluoro-6-(3-fluoro-1-methyl-1H-pyrazol-4-yl)phenyl)-N-((3S,6R)-6-(hydroxymethyl)tetrahydro-2H-pyran-3-yl)imidazo[1,2-a]pyridine-7-carboxamide]", "IC50": 0.97},
      {"molecule": "Cn1cc(-c2cccc(F)c2-c2nc3cc(C(=O)N[C@H]4C[C@](C)(O)C4)ccn3c2C#N)c(F)n1", "note": "[Compound 925, 3-cyano-2-(2-fluoro-6-(3-fluoro-1-methyl-1H-pyrazol-4-yl)phenyl)-N-((1r,3r)-3-hydroxy-3-methylcyclobutyl)imidazo[1,2-a]pyridine-7-carboxamide]", "IC50": 1.85},
      {"molecule": "Cn1cc(-c2cccc(F)c2-c2nc3cc(C(=O)N[C@H]4CC[C@@H](CO)OC4)ccn3c2C#N)c(F)n1", "note": "[Compound 926]", "IC50": 2.21},
      {"molecule": "Cn1cc(-c2ccc(F)c(F)c2-c2nc3cc(C(=O)N[C@H]4C[C@](C)(O)C4)ccn3c2Cl)c(F)n1", "note": "[Compound 927]", "IC50": 2.66}
    ]}
  ]
}
